# From ChEMBL document CHEMBL5385923, “HPPO-Derived Meroterpenoids from the Marine-Derived Fungus Penicillium sp. SCSIO 41691” (J Nat Prod, 2024)
# pIC50: −log10 of the molar value.
# Legend:
# [1] = test system: NCI-H1975; assay: Cytotoxicity against human NCI-H1975 cells assessed as inhibition of cell growth incubated for 24 hrs by CCK-8 assay; assay type: functional, cell-based; details: NCI-H1975, 24 h
# [2] = test system: RAW264.7; assay: Antiinflammatory activity in LPS induced mouse RAW264.7 cells assessed as inhibition of NO production at 25 uM pretreated for 2 hrs followed by LPS stimulation and measured after 24 hrs by Griess reagent based assay relative to control; assay type: functional; details: time 26 hrs
# [3] = Cytotoxicity against mouse RAW264.7 cells assessed as reduction in cell viability incubated for 2 hrs by MTT assay; assay type: toxicity, cell-based
# [4] = test system: RAW264.7; assay: Antiinflammatory activity in LPS induced mouse RAW264.7 cells assessed as inhibition of NO production pretreated for 2 hrs followed by LPS stimulation and measured after 24 hrs by Griess reagent based assay; assay type: functional, cell-based
pIC50 [4],Structure (SMILES),pIC50 [1],inhibition at 25 µM [2] [%],CC50 at 2 h [3] [µM]
,COc1ccc(-c2cc3c(c(=O)o2)C[C@H]2[C@@](C)(CC[C@@]45O[C@@](O)(OC4(C)C)[C@H](O)C[C@]25C)O3)cc1,< 4.10,0,
4.68,COc1ccc(-c2cc3c(c(=O)o2)C[C@]2(O)[C@@]45CO[C@@H](CC4=O)C(C)(C)[C@]5(O)CC[C@@]2(C)O3)cc1OC,< 4.10,62,> 50
,COc1ccc(-c2cc3c(c(=O)o2)C[C@]24O[C@]25[C@H](C)C[C@@H](O)C(C)(C)[C@]5(O)CC[C@@]4(C)O3)cc1,< 4.10,6.3,
,COc1ccc(-c2cc3c(c(=O)o2)C[C@]2(O)[C@@]4(C)[C@H](O)C[C@@H](OC(C)=O)C(C)(C)[C@]4(O)CC[C@@]2(C)O3)cc1,< 4.10,2.5,
,COc1cc(-c2cc3c(c(=O)o2)C[C@]2(O)[C@@]45CO[C@@H](CC4=O)C(C)(C)[C@]5(O)CC[C@@]2(C)O3)cc2c1OCO2,4.82,11,
,COc1cc(-c2cc3c(c(=O)o2)C[C@]2(O)[C@@]45CO[C@@H](CC4=O)C(C)(C)[C@]5(O)CC[C@@]2(C)O3)cc(OC)c1OC,< 4.10,22,
,COc1ccc(-c2cc3c(c(=O)o2)C[C@H]2[C@@](C)(CC[C@@]4(O)C(C)(C)C(=O)C=C[C@]24C)O3)cc1,< 4.10,35,
,COc1ccc(-c2cc3c(c(=O)o2)C[C@]2(O)[C@@]45O[C@]4(CC[C@@]2(C)O3)C(C)(C)[C@H](O)C[C@H]5C)cc1,4.17,32,
,COc1ccc(-c2cc3c(c(=O)o2)C[C@H]2[C@@](C)(CC[C@@]4(O)C(C)(C)OC(=O)[C@H](O)C[C@]24C)O3)cc1,< 4.10,7.6,
4.62,COc1ccc2c(c1)c(CC(=O)O)c(C)n2C(=O)c1ccc(Cl)cc1 [INDOMETHACIN],,57,> 50
